Experimental data taken from patent US20260306460A1, “COMPOSITION FOR REMOVING AND INHIBITING SENESCENT CELLS, AND USES THEREOF” (LIFECEUTIX CO., LTD., priority 2023, published 2026).

Experiments:
[1] = system: naturally aged mice; experiment: Anti-aging evaluation in naturally aged mice, Example 31, Table 55; format: in vivo, mouse; settings: for Femur Ctsk mRNA / Kidney Agtr1a mRNA / Liver IL6 mRNA / Liver MMP3 mRNA / Liver p16 mRNA / Open Field Test Time in Center: untreated = 100%; for Heart Sur2a mRNA / Joint Col2a1 mRNA / Skin Col1a1 mRNA / Skin SDF1 mRNA: untreated = 1.0; for Muscle Mass: untreated 0.64 g; for Fat Mass: untreated 0.82 g; for Cataract incidence: untreated 83%;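 on all read-outs here: Vehicle-dosed control mice received solution alone at matching volume, values compare test-compound-treated aged mice against that control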
Method: After the end of drug administration, the method described in each example below was performed. […] The mRNA amounts of p16, MMP3, and IL6 after natural aging was induced were calculated as 100% and compared with the mRNA amounts of p16, MMP3, and IL6 after treatment with the test compound. In addition, an open field test for the analysis of aging-related frailty, agtr1a mRNA analysis for kidney damage and disease evaluation, col1a1 and SDF1 mRNA analysis for skin aging evaluation such as wrinkles/loss of elasticity/hyperpigmentation, col2a1 mRNA analysis for evaluating joint aging such as osteoarthritis, sur2a mRNA analysis for evaluating cardiac aging such as decreased cardiac load resistance, ctsk mRNA analysis for evaluating bone diseases due to aging such as osteoporosis, muscle tissue weight for analyzing sarcopenia, fat tissue weight for analyzing lipoatrophy, and cataract incidence analysis were performed in mice. For cataract incidence analysis, the drug was administered twice a week under the conditions specified above, and biweekly examinations were conducted until death.

[2] = system: bleomycin-induced pulmonary fibrosis mice; experiment: Bleomycin-induced pulmonary fibrosis mice, Example 31, Table 56; format: in vivo, mouse; settings: untreated = 100%
Method: (§1) The control group was administered only the solution in the same volume. After the end of drug administration, the method described in each example below was performed. Liver, kidney, skin, knee joint, heart, and femur tissues were collected from mice in which natural aging was induced in the same manner as in Examples 7-2 and 7-6 of WO2023-085787 A1. Lung tissues were collected from mice in which pulmonary fibrosis was induced using the same method as in Example 24-1. Liver tissues were collected from mice in which hepatic fibrosis was induced using the same method as in Example 26, and total RNA was extracted. qRT-PCR was performed and analyzed using the synthesized cDNA. […] The mRNA amounts of p16, MMP3, and IL6 after natural aging was induced were calculated as 100% and compared with the mRNA amounts of p16, MMP3, and IL6 after treatment with the test compound. In addition, an open field test for the analysis of aging-related frailty, agtr1a mRNA analysis for kidney damage and disease evaluation, col1a1 and SDF1 mRNA analysis for skin aging evaluation such as wrinkles/loss of elasticity/hyperpigmentation, col2a1 mRNA analysis for evaluating joint aging such as osteoarthritis, sur2a mRNA analysis for evaluating cardiac aging such as decreased cardiac load resistance, ctsk mRNA analysis for evaluating bone diseases due to aging such as osteoporosis, muscle tissue weight for analyzing sarcopenia, fat tissue weight for analyzing lipoatrophy, and cataract incidence analysis were performed in mice. For cataract incidence analysis, the drug was administered twice a week under the conditions specified above, and biweekly examinations were conducted until death.
The table below quantitatively presents the evaluation results for each item in mice with bleomycin-induced pulmonary fibrosis, untreated and treated with the test compound.

[3] = system: carbon tetrachloride-induced liver fibrosis mice; experiment: Carbon tetrachloride-induced liver fibrosis mice, Example 31, Table 57; format: in vivo, mouse; settings: CCl4-induced liver fibrosis mice, untreated = 100%
Method: as §1

[4] = system: senescent cells; experiment: Viability of senescent cells (CellTiter-Glo), Example 17, Table 13; settings: Homo sapiens, read-out: Survival (%)
Method: Cells induced to undergo senescence by doxorubicin treatment were treated with test compound at designated concentrations and measured using the CellTiter-Glo Luminescent Cell Viability Assay (Promega).

[5] = system: senescent A549 cells; experiment: Viability of senescent A549 cells (CellTiter-Glo), Example 18, Table 15; settings: Homo sapiens, A549, read-out: Survival (%)
Method: Senescence-induced cancer cells treated with doxorubicin were treated with the test compound at designated concentrations, and cell viability was measured using the CellTiter-Glo Luminescent Cell Viability Assay (Promega).

CC1(C)[C@H]2COc3ccc4ccccc4c3[C@H]2N=C2SC(c3ccccc3)=C(c3ccccc3)N21 [LX-5201]
Femur Ctsk mRNA [1]: 53%
Heart Sur2a mRNA [1]: 1.5 fold
Joint Col2a1 mRNA [1]: 1.9 fold
Kidney Agtr1a mRNA [1]: 58%
Liver IL6 mRNA [1]: 43%
Liver MMP3 mRNA [1]: 67%
Liver p16 mRNA [1]: 58%
Open Field Test Time in Center [1]: 168%
Skin Col1a1 mRNA [1]: 2.1 Fold
Skin SDF1 mRNA [1]: 2.3 fold
Muscle Mass [1]: 0.77 g
Fat Mass [1]: 0.97 g
Cataract incidence [1]: 49%
Lung p16 mRNA [2]: 75 (±4.2) %
Col1a1 mRNA [2]: 74 (±6.3) %
Liver p16 mRNA [3]: 64 (±8.4) %
Col1a1 mRNA [3]: 59 (±8.7) %
viability at 1.1 µM [4]: 102%
viability at 10 µM [4]: 88.3%
viability at 30 µM [4]: 37.7%
viability at 1.1 µM [5]: 102%
viability at 10 µM [5]: 61.5%
viability at 30 µM [5]: 3.8%

CN[C@H](CC(C)C)C(=O)N[C@H]1C(=O)N[C@@H](CC(N)=O)C(=O)N[C@H]2C(=O)N[C@H]3C(=O)N[C@H](C(=O)N[C@H](C(=O)O)c4cc(O)cc(O)c4-c4cc3ccc4O)[C@H](O)c3ccc(c(Cl)c3)Oc3cc2cc(c3O[C@@H]2O[C@H](CO)[C@@H](O)[C@H](O)[C@H]2O[C@H]2C[C@](C)(N)[C@H](O)[C@H](C)O2)Oc2ccc(cc2Cl)[C@H]1O [LX-5424, Vancomycin]
Femur Ctsk mRNA [1]: 70%
Heart Sur2a mRNA [1]: 2.3 fold
Joint Col2a1 mRNA [1]: 1.5 fold
Kidney Agtr1a mRNA [1]: 68%
Liver IL6 mRNA [1]: 45%
Liver MMP3 mRNA [1]: 59%
Liver p16 mRNA [1]: 72%
Open Field Test Time in Center [1]: 191%
Skin Col1a1 mRNA [1]: 1.6 Fold
Skin SDF1 mRNA [1]: 1.7 fold
Muscle Mass [1]: 0.67 g
Fat Mass [1]: 0.84 g
Cataract incidence [1]: 76%
Lung p16 mRNA [2]: 70 (±3.5) %
Col1a1 mRNA [2]: 73 (±2.7) %
Liver p16 mRNA [3]: 79 (±5.6) %
Col1a1 mRNA [3]: 51 (±4.7) %
viability at 1.1 µM [4]: 106%
viability at 10 µM [4]: 62.5%
viability at 30 µM [4]: 10.5%
viability at 1.1 µM [5]: 98.9%
viability at 10 µM [5]: 74.3%
viability at 30 µM [5]: 21.8%

CCN(CC1C(=O)C2CCN1CC2)C(=O)C(Cl)(Cl)Cl (stereo not shown) [LX-5702]
Femur Ctsk mRNA [1]: 61%
Heart Sur2a mRNA [1]: 2.5 fold
Joint Col2a1 mRNA [1]: 2.4 fold
Kidney Agtr1a mRNA [1]: 49%
Liver IL6 mRNA [1]: 49%
Liver MMP3 mRNA [1]: 55%
Liver p16 mRNA [1]: 47%
Open Field Test Time in Center [1]: 211%
Skin Col1a1 mRNA [1]: 1.8 Fold
Skin SDF1 mRNA [1]: 2.0 fold
Muscle Mass [1]: 0.70 g
Fat Mass [1]: 0.85 g
Cataract incidence [1]: 66%
Lung p16 mRNA [2]: 61 (±6.2) %
Col1a1 mRNA [2]: 68 (±7.5) %
Liver p16 mRNA [3]: 72 (±3.9) %
Col1a1 mRNA [3]: 65 (±7.2) %
viability at 1.1 µM [4]: 97.5%
viability at 10 µM [4]: 5.2%
viability at 1.1 µM [5]: 91.8%
viability at 10 µM [5]: 38.1%
viability at 30 µM [5]: 3.9%

CC12CCN(CC1)C(CNC(=O)C(F)(F)F)C2=O (stereo not shown) [LX-5706]
Femur Ctsk mRNA [1]: 68%
Heart Sur2a mRNA [1]: 2 fold
Joint Col2a1 mRNA [1]: 1.9 fold
Kidney Agtr1a mRNA [1]: 70%
Liver IL6 mRNA [1]: 71%
Liver MMP3 mRNA [1]: 60%
Liver p16 mRNA [1]: 64%
Open Field Test Time in Center [1]: 171%
Skin Col1a1 mRNA [1]: 1.6 Fold
Skin SDF1 mRNA [1]: 1.4 fold
Muscle Mass [1]: 0.69 g
Fat Mass [1]: 0.85 g
Cataract incidence [1]: 74%
Lung p16 mRNA [2]: 76 (±6.1) %
Col1a1 mRNA [2]: 79 (±5.2) %
Liver p16 mRNA [3]: 69 (±6.9) %
Col1a1 mRNA [3]: 70 (±4.8) %
viability at 1.1 µM [4]: 96.5%
viability at 10 µM [4]: 12.7%
viability at 1.1 µM [5]: 88.5%
viability at 10 µM [5]: 31%
viability at 30 µM [5]: 0.3%

CC12CCN(CC1)C(CN(C1CC1)S(C)(=O)=O)C2=O (stereo not shown) [LX-5707]
Femur Ctsk mRNA [1]: 64%
Heart Sur2a mRNA [1]: 2.3 fold
Joint Col2a1 mRNA [1]: 2.0 fold
Kidney Agtr1a mRNA [1]: 65%
Liver IL6 mRNA [1]: 61%
Liver MMP3 mRNA [1]: 63%
Liver p16 mRNA [1]: 59%
Open Field Test Time in Center [1]: 199%
Skin Col1a1 mRNA [1]: 1.7 Fold
Skin SDF1 mRNA [1]: 1.6 fold
Muscle Mass [1]: 0.70 g
Fat Mass [1]: 0.90 g
Cataract incidence [1]: 70%
Lung p16 mRNA [2]: 72 (±8.9) %
Col1a1 mRNA [2]: 69 (±7.1) %
Liver p16 mRNA [3]: 64 (±8.3) %
Col1a1 mRNA [3]: 72 (±9.6) %
viability at 1.1 µM [4]: 103%
viability at 10 µM [4]: 27.3%
viability at 1.1 µM [5]: 81%
viability at 10 µM [5]: 37.3%
viability at 30 µM [5]: 4.3%

CCOc1cc(CC(=O)N[C@@H](CC(C)C)c2ccccc2N2CCCCC2)ccc1C(=O)O [LX-9302, Repaglinide]
viability at 1.1 µM [4]: 99.7%
viability at 10 µM [4]: 73.5%
viability at 30 µM [4]: 34.3%
viability at 1.1 µM [5]: 94.1%
viability at 10 µM [5]: 82.3%
viability at 30 µM [5]: 68.5%
viability at 90 µM [5]: 11.8%

C=CC[C@@H]1/C=C(\C)C[C@H](C)C[C@H](OC)[C@H]2O[C@@](O)(C(=O)C(=O)N3CCCC[C@H]3C(=O)O[C@H](/C(C)=C/[C@@H]3CC[C@@H](O)[C@H](OC)C3)[C@H](C)[C@@H](O)CC1=O)[C@H](C)C[C@@H]2OC [LX-9314, Tacrolimus]
viability at 1.1 µM [4]: 84.7%
viability at 10 µM [4]: 69.2%
viability at 30 µM [4]: 35.3%
viability at 1.1 µM [5]: 92.9%
viability at 10 µM [5]: 57.1%
viability at 30 µM [5]: 14.7%

O=C1[C@H](CC[C@H](O)c2ccc(F)cc2)[C@@H](c2ccc(O)cc2)N1c1ccc(F)cc1 [LX-9321, Ezetimibe]
viability at 1.1 µM [4]: 98.3%
viability at 10 µM [4]: 86.4%
viability at 30 µM [4]: 79.6%
viability at 90 µM [4]: 19.4%
viability at 1.1 µM [5]: 108%
viability at 10 µM [5]: 91.4%
viability at 30 µM [5]: 65.8%
viability at 90 µM [5]: 4.1%

COc1ccc(Cl)cc1C(=O)NCCc1ccc(S(=O)(=O)NC(=O)NC2CCCCC2)cc1 [LX-9335, glyburide]
viability at 1.1 µM [4]: 85.2%
viability at 10 µM [4]: 56.3%
viability at 30 µM [4]: 12.2%
viability at 1.1 µM [5]: 90.2%
viability at 10 µM [5]: 60.8%
viability at 30 µM [5]: 13.8%
